The test system of test [1] is harmful plants such as Sinapis alba, Echinochloa crus- galli, Lolium multiflorum, Stellaria media, Cyperus iria, Amaranthus retroflexus, Setaria viridis and …. Nature of the test: Post-emergence effect on weeds (greenhouse pot test, visual scoring). Type of test: in vivo. The note with it: applied post-emergence (three-leaf stage) at an application rate of 1 kg and less of active substance per hectare; scored visually after about 3 to 4 weeks vs untreated controls. The protocol:
2. Post-emergence Effect on Weeds
Seeds or rhizome pieces of monocotyledonous and dicotyledonous weeds are placed in sandy loam soil in plastic pots, covered with soil and grown in the greenhouse under good growth conditions. Three weeks after sowing, the test plants are treated in the three-leaf stage. The compounds according to the invention which are formulated as wettable powders or as emulsion concentrates are sprayed in various dosages on the green parts of the plants at an application rate of 600 to 800 l of water/ha (converted). After the test plants have remained in the greenhouse for about 3 to 4 weeks under ideal growth conditions, the effect of the preparations is scored visually by comparison with untreated controls. The agents according to the invention also have a good herbicidal post-emergence action against a broad range of economically important grass weeds and dicotyledonous weeds.

Test [2] deals with harmful plants such as Stellaria media, Lolium multiflorum, Amaranthus retroflexus, Sinapis alba, Avena sativa and Setaria viridis. In words: Pre-emergence effect on weeds (greenhouse pot test, visual scoring).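 Note: scored as plant damage or reduced emergence.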 It is filed as in vivo. The note with it: applied pre-emergence at an application rate of 1 kg or less of active substance per hectare; scored visually after 3 to 4 weeks vs untreated controls. The text has this: 1 Pre-emergence Effect on Weeds
Seeds or rhizome pieces of monocotyledonous and dicotyledonous weeds plants are placed in sandy loam soil in plastic pots and covered with soil. The compounds according to the invention which are formulated in the form of wettable powders or emulsion concentrates are then applied to the surface of the soil cover in the form of an aqueous suspension or emulsion at an application rate of 600 to 800 l of water/ha (converted), in various dosages.

SMILES strings stand for the structures.

`CC(C)Cc1nc(N)nc(NC(CCCc2ccccc2)C2CCC2)n1` (stereo not shown) [Example 28-5]: the “herbicidal action against harmful plants, post-emergence” value (shortened to “herbicidal action … post-emergence”) in test [1] is on record as “very good herbicidal action”. Further, the “herbicidal action against harmful plants, pre-emergence” value (“herbicidal action … pre-emergence” below) in test [2] is listed as “very good herbicidal action”.

With `Cc1cccc(CCCC(Nc2nc(N)nc(C(C)(C)F)n2)C2CC2)c1` (stereo not shown) [Example 22-27], in test [1], the “herbicidal action … post-emergence” value was “very good herbicidal action”. In addition, the “herbicidal action … pre-emergence” value in test [2] is “very good herbicidal action”.

Regarding `Cc1cccc(CCCC(Nc2nc(N)nc(C(C)C)n2)C2CC2)c1` (stereo not shown) [Example 22-26], the “herbicidal action … post-emergence” value in test [1] is listed as “very good herbicidal action”. Besides, the “herbicidal action … pre-emergence” value in test [2] is listed as “very good herbicidal action”.

On to `Cc1cc(C)cc(CCC(Nc2nc(N)nc(C(C)C)n2)C2CC2)c1` (stereo not shown) [Example 9-18], for which the “herbicidal action … post-emergence” value in test [1] is listed as “very good herbicidal action”. Also, the “herbicidal action … pre-emergence” value in test [2] was “very good herbicidal action”.

As to `CC(C)c1nc(N)nc(NC(CCc2cccc(Cl)c2)CC2CC2)n1` (stereo not shown) [Example 32-5], the “herbicidal action … post-emergence” value in test [1] was “very good herbicidal action”. Further, in test [2], the “herbicidal action … pre-emergence” value is given as “very good herbicidal action”.

Take `CC(C)(F)c1nc(N)nc(NC(CCc2cccc(F)c2)C2CCC2)n1` (stereo not shown) [Example 4-28]: in test [1], the “herbicidal action … post-emergence” value is listed as “very good herbicidal action”. Moreover, the “herbicidal action … pre-emergence” value in test [2] was “very good herbicidal action”.

For the compound `CC(C)(F)c1nc(N)nc(NC(CCc2ccccc2)C2CC2(C)C)n1` (stereo not shown) [Example 10-1], the “herbicidal action … post-emergence” value in test [1] is listed as “very good herbicidal action”. For the same compound, the “herbicidal action … pre-emergence” value in test [2] was “very good herbicidal action”.

With `Cc1cccc(CCC(CC2CC2)Nc2nc(N)nc(C(C)(C)F)n2)c1` (stereo not shown) [Example 32-10], the “herbicidal action … post-emergence” value in test [1] was “very good herbicidal action”. Further, the “herbicidal action … pre-emergence” value in test [2] was “very good herbicidal action”.

For `CC(C)(F)c1nc(N)nc(NC(CCCc2cccc(Cl)c2)C2CCC2)n1` (stereo not shown) [Example 28-14], the “herbicidal action … post-emergence” value in test [1] is listed as “very good herbicidal action”. Besides, in test [2], the “herbicidal action … pre-emergence” value is given as “very good herbicidal action”.

As for `Cc1nc(N)nc(NC(CCc2ccccc2)C2CC2)n1` (stereo not shown) [Example 9-3], in test [1], the “herbicidal action … post-emergence” value is “very good herbicidal action”. The “herbicidal action … pre-emergence” value in test [2] is given as “very good herbicidal action”.

On to `Cc1cc(C)cc(CCCC(Nc2nc(N)nc(C(C)(C)F)n2)C2CC2)c1` (stereo not shown) [Example 22-28, 2-Amino-4-(1-fluoro-1-methylethyl)-6-[4-(3,5-dimethylphenyl)-1-cyclopropyl-1-butylamino]-1,3,5-triazine], for which the “herbicidal action … post-emergence” value in test [1] is given as “very good herbicidal action”. For the same compound, the “herbicidal action … pre-emergence” value in test [2] is reported as “very good herbicidal action”.

As for `CC(C)(F)c1nc(N)nc(NC(CCCc2cccc(Cl)c2)C2CC2)n1` (stereo not shown) [Example 22-18], in test [1], the “herbicidal action … post-emergence” value was “very good herbicidal action”. The “herbicidal action … pre-emergence” value in test [2] is on record as “very good herbicidal action”.

Regarding `Cc1cccc(CCC(Nc2nc(N)nc(CC(C)C)n2)C2CC2)c1` (stereo not shown) [Example 9-15], in test [1], the “herbicidal action … post-emergence” value is recorded as “very good herbicidal action”. The “herbicidal action … pre-emergence” value in test [2] was “very good herbicidal action”.

As to `CC(C)(F)c1nc(N)nc(NC(CCc2ccccc2)C2CCCO2)n1` (stereo not shown) [Example 19-5], the “herbicidal action … post-emergence” value in test [1] is on record as “very good herbicidal action”. For the same compound, in test [2], the “herbicidal action … pre-emergence” value is reported as “very good herbicidal action”.

Turning to `Cc1cc(C)cc(CCC(Nc2nc(N)nc(C(C)(C)F)n2)C2CC2)c1` (stereo not shown) [Example 9-17, 2-Amino-4-(1-fluoro-1-methylethyl)-6-[3-(3,5-dimethylphenyl)-1-cyclopropyl-1-propylamino]-1,3,5-triazine], in test [1], the “herbicidal action … post-emergence” value is “very good herbicidal action”. In addition, the “herbicidal action … pre-emergence” value in test [2] is given as “very good herbicidal action”.

Turning to `CC(C)c1nc(N)nc(NC(CCc2ccccc2)c2ccoc2)n1` (stereo not shown) [Example 18-2], in test [1], the “herbicidal action … post-emergence” value is “very good herbicidal action”. The “herbicidal action … pre-emergence” value in test [2] is “very good herbicidal action”.

Consider `CC(C)c1nc(N)nc(NC(CCc2ccccc2)c2ccccc2)n1` (stereo not shown) [Example 18-4], for which, in test [1], the “herbicidal action … post-emergence” value was “very good herbicidal action”. Besides, the “herbicidal action … pre-emergence” value in test [2] was “very good herbicidal action”.

Consider `Cc1nc(N)nc(NC(CCc2ccccc2)C2CCC2)n1` (stereo not shown) [Example 4-3], for which, in test [1], the “herbicidal action … post-emergence” value is recorded as “very good herbicidal action”. Further, the “herbicidal action … pre-emergence” value in test [2] was “very good herbicidal action”.

Regarding `CC(C)c1nc(N)nc(NC(CCc2ccccc2)C2CCOC2)n1` (stereo not shown) [Example 20-2], the “herbicidal action … post-emergence” value in test [1] is “very good herbicidal action”. For the same compound, in test [2], the “herbicidal action … pre-emergence” value is reported as “very good herbicidal action”.

In the case of `CC(C)c1nc(N)nc(NC(CCCc2cccc(F)c2)C2CC2)n1` (stereo not shown) [Example 22-25], the “herbicidal action … post-emergence” value in test [1] is recorded as “very good herbicidal action”. Besides, the “herbicidal action … pre-emergence” value in test [2] is recorded as “very good herbicidal action”.

On to `CC(C)(F)c1nc(N)nc(NC(CCc2cccc(Cl)c2)C2CC2)n1` (stereo not shown) [Example 9-8], for which the “herbicidal action … post-emergence” value in test [1] is given as “very good herbicidal action”. For the same compound, the “herbicidal action … pre-emergence” value in test [2] is “very good herbicidal action”.

As for `COc1cccc(CCC(Nc2nc(N)nc(C(C)C)n2)C2CC2)c1` (stereo not shown) [Example 9-13], the “herbicidal action … post-emergence” value in test [1] is given as “very good herbicidal action”. Further, the “herbicidal action … pre-emergence” value in test [2] is “very good herbicidal action”.

As to `CC(C)(F)c1nc(N)nc(NC(CCc2ccccc2)C2CCCC2)n1` (stereo not shown) [Example 8-2], in test [1], the “herbicidal action … post-emergence” value is “very good herbicidal action”. The “herbicidal action … pre-emergence” value in test [2] was “very good herbicidal action”.

Consider `CC(C)c1nc(N)nc(NC(CCc2ccccc2)C2CCCC2)n1` (stereo not shown) [Example 8-1], for which the “herbicidal action … post-emergence” value in test [1] was “very good herbicidal action”. Also, in test [2], the “herbicidal action … pre-emergence” value is recorded as “very good herbicidal action”.

For `CC(C)c1nc(N)nc(NC(CCc2ccccc2)CC2CC2)n1` (stereo not shown) [Example 32-1], the “herbicidal action … post-emergence” value in test [1] is “very good herbicidal action”. In addition, the “herbicidal action … pre-emergence” value in test [2] is listed as “very good herbicidal action”.

Take `CC(C)(F)c1nc(N)nc(NC(CCc2ccccc2)c2ccoc2)n1` (stereo not shown) [Example 18-1]: the “herbicidal action … post-emergence” value in test [1] is “very good herbicidal action”. Also, the “herbicidal action … pre-emergence” value in test [2] is recorded as “very good herbicidal action”.

On to `CC(C)c1nc(N)nc(NC(C=Cc2ccccc2)C2CC2)n1` (stereo not shown) [Example 44-2], for which, in test [1], the “herbicidal action … post-emergence” value is “very good herbicidal action”. Further, the “herbicidal action … pre-emergence” value in test [2] is listed as “very good herbicidal action”.

In the case of `CC(C)c1nc(N)nc(NC(CCc2ccccc2)C2CCCO2)n1` (stereo not shown) [Example 19-6], the “herbicidal action … post-emergence” value in test [1] is “very good herbicidal action”. The “herbicidal action … pre-emergence” value in test [2] is “very good herbicidal action”.

For `CCc1nc(N)nc(NC(CCc2ccccc2)C2CC2)n1` (stereo not shown) [Example 9-2], the “herbicidal action … post-emergence” value in test [1] was “very good herbicidal action”. Further, the “herbicidal action … pre-emergence” value in test [2] is recorded as “very good herbicidal action”.

On to `CC(C)(F)c1nc(N)nc(NC(CCc2ccccc2)CC2CC2(F)F)n1` (stereo not shown) [Example 33-2], for which, in test [1], the “herbicidal action … post-emergence” value was “very good herbicidal action”. The “herbicidal action … pre-emergence” value in test [2] is “very good herbicidal action”.

Turning to `Cc1cccc(CCC(Nc2nc(C)nc(N)n2)C2CCC2)c1` (stereo not shown) [Example 4-29, 2-Amino-6-methyl-4-[3-(3-methylphenyl)-1-cyclobutyl-1-propylamino]1,3,5-triazine], the “herbicidal action … post-emergence” value in test [1] is given as “very good herbicidal action”. In addition, the “herbicidal action … pre-emergence” value in test [2] is listed as “very good herbicidal action”.

Consider `Nc1nc(NC(CCCCc2ccccc2)C2CCC2)nc(C(F)(F)F)n1` (stereo not shown) [Example 31-2], for which, in test [1], the “herbicidal action … post-emergence” value is recorded as “very good herbicidal action”. For the same compound, the “herbicidal action … pre-emergence” value in test [2] is reported as “very good herbicidal action”.

As for `CC(C)c1nc(N)nc(NC(CCc2cccc(C(F)(F)F)c2)C2CC2)n1` (stereo not shown) [Example 9-11], the “herbicidal action … post-emergence” value in test [1] is “very good herbicidal action”. The “herbicidal action … pre-emergence” value in test [2] was “very good herbicidal action”.

With `CC(C)c1nc(N)nc(NC(CCCCc2ccccc2)C2CC2)n1` (stereo not shown) [Example 30-1], the “herbicidal action … post-emergence” value in test [1] is recorded as “very good herbicidal action”. In test [2], the “herbicidal action … pre-emergence” value was “very good herbicidal action”.

For `Cc1ccccc1CCC(Nc1nc(N)nc(C(C)(C)F)n1)C1CCC1` (stereo not shown) [Example 4-25], the “herbicidal action … post-emergence” value in test [1] is on record as “very good herbicidal action”. Besides, the “herbicidal action … pre-emergence” value in test [2] is recorded as “very good herbicidal action”.

Values taken from patent US20030162661A1, “2,4-Diamino-1,3,5-triazines, their preparation, and their use as herbicides and plant growth regulators” (priority 1998, published 2003).
